The source of these data is patent US10870670B2, “Preparation of (S,S)-secoisolariciresinol diglucoside and (R,R)-secoisolariciresinol diglucoside” (The Trustees of the University of Pennsylvania, priority 2013, dated 2020).

Assay type in all cases: biochemical
A short description of test [1]: Reducing power activity assay (ferricyanide reduction, absorbance at 700 nm). The note with it: regression line over 1-100 μM; sodium phosphate buffer pH 6.6; n=3; read-out: EC50 for reducing power (mean±std. dev.). As to the method: The determination of reducing power was performed as described by Yen and Der (J. Am. Oil Chem. Soc. 1993, 70, 383). Reducing power assay determines the reducing potential of the test compound which reacts with potassium ferricyanide (Fe^+3) to form potassium ferrocyanide (Fe^+2), which subsequently reacts with ferric chloride to produce a ferric-ferrous complex that has maximum absorption at 700 nm. Various concentrations (1-500 μM) of test compounds were taken in sodium phosphate buffer (0.1 M, pH 6.6) in 96-well microplates and mixed with potassium ferricyanide (1%). Samples were incubated at 50° C. and equal volume of 10% trichloroacetic acid was added. The upper layer was mixed with deionized water (1:1:2) and ferric chloride (0.1%). The absorbance was read at 700 nm on a Bio-Rad microplate reader (Bio-Rad, Hercules, Calif.). The increase in absorbance indicates increase in reducing power.
The reducing powers of synthetic (S,S)-SDG-1, synthetic (R,R)-SDG-2, natural (S,S)-SDG-1, ascorbic acid, and α-tocopherol were determined by the reduction of K3FeCN6 in the presence of FeCl3, as measured by the absorbance of the resulting ferric-ferrous complex (FIG. 2). […] This allowed the half maximal effective concentration (EC50) for reducing power to be calculated (FIG. 3).

The nature of test [2]: DPPH radical scavenging assay. To be noted: for EC50: regression lines over 5-100 μM, 250 μM DPPH, Tris buffer pH 7.4, 20 min, n=3, read-out: DPPH free radical scavenging activity EC50. As to the method: The ability of the SDGs to scavenge DPPH radicals was assessed as described by Moree et al. (Free Rad. Anitox. 2011, 1, 31) with minor modifications for use in microplates. Briefly, different concentrations of SDG isomers and other test compounds were incubated with 200 μL medium in 96-well microplates containing 0.1 M Tris buffer (pH 7.4) and 250 μM DPPH solution, and kept in the dark for 20 min. The absorbance was read at 517 nm in a Bio-Rad microplate reader. Ascorbic acid and α-tocopherol were used as known antioxidants for comparison. The radical scavenging activity was measured as a decrease in the absorbance of DPPH and calculated using the following equation: Percentage inhibition=[O.D.control−O.D.treated/O.D.control]×100.
The free radical scavenging activities of synthetic (S,S)-SDG-1 and (R,R)-SDG-2 were determined using a 2,2-diphenyl-1-pierylhydrazyl (DPPH) free radical scavenging assay and was compared to those of natural (S,S)-SDG-1, ascorbic acid, and α-tocopherol (FIG. 4). […] Establishing regression lines for the potentials at low- and mid-concentration ranges (5-100 μM) allowed the free radical EC50 scavenging activity of these compounds to be determined.

A short description of test [3]: Hydroxyl radical scavenging potential (HORAC assay). The note with it: for Antioxidant capacity Against Hydroxyl Radicals (GAE): HORAC assay, Fenton reaction, gallic acid equivalent, mean±SD, n=3; for Inhibition of fluorescein oxidation by hydroxyl radicals relative to gallic acid: HORAC, gallic acid standard, concentration-dependent. Here is the method: The ability of SDGs to scavenge hydroxyl radicals in a chemical system was evaluated using HORAC Assay kit (# TA30) obtained from Oxford Biomedical Research. Hydroxyl radicals were generated from hydrogen peroxide by Fenton reaction. Oxidation of fluorescein was measured on a fluorescence microplate reader. Antioxidants inhibit fluorescein oxidation. Gallic acid was used as a standard for calibration curve. Calculations used SDG concentration that fit the linear part of the calibration curve. SDG concentrations were used in the range of […]. Antioxidant capacity against hydroxyl radicals was expressed as gallic acid equivalent (GAE).
(§1) The ability of synthetic (S,S)-SDG-1 and (R,R)-SDG-2 to scavenge hydroxyl and peroxyl radicals as manifested by their inhibition of the oxidation of fluorescein was assessed by the hydroxyl radical averting capacity (HORAC, gallic acid standard) and peroxyl radical absorbance capacity assays (ORAC, trolox standard), respectively (Table 1). […] However, synthetic (S,S)-SDG-1 activity differed from natural (S,S)-SDG-1, likely due to trace impurities.
(§2) In Table 1, hydroxyl radicals were generated from hydrogen peroxide by Fenton reaction. Peroxyl radicals were generated by AAPH (2,2′-azobis(2-amidinopropane) dihydrochloride). Oxidation of fluorescein was measured. Calculations used SDG concentrations that fitted the linear part of the calibration curve. The results are presented as mean±standard deviation (n=3).

A short description of test [4]: Peroxyl radical scavenging potential (ORAC assay). To be noted: for Antioxidant capacity Against Peroxyl Radicals (TE): ORAC assay, AAPH-generated radicals, Trolox equivalents, mean±SD, n=3; for Inhibition of fluorescein oxidation by peroxyl radicals relative to trolox: ORAC, trolox standard, AAPH. Here is the method:
The ability of SDGs to scavenge peroxyl radicals in a chemical system was evaluated using an ORAC assay kit (# STA345) obtained from Cell Biolab (San Diego, Calif.). Peroxyl radicals were generated by AAPH (2,2′-azobis(2-amidinopropanedihydrochloride). Oxidation of fluorescein was measured using a fluorescence microplate reader. Antioxidants inhibit fluorescein oxidation. Trolox was used as a standard for calibration curve. Calculations used SDG concentrations that fit the linear part of the calibration curve. SDG concentrations were used in the range of 8 μM-1 mM. Antioxidant capacity against peroxyl radicals was expressed as Trolox equivalent (TE).
as §1, §2

`Cc1c(C)c2c(c(C)c1O)CC[C@@](C)(CCC[C@H](C)CCC[C@H](C)CCCC(C)C)O2` [α-tocopherol, reference compound]: the figures for the EC50 in test [1] and in test [2] were 945 ± 148 µM and 133 ± 12.6 µM, respectively.

On to `COc1cc(C[C@H](CO[C@@H]2O[C@H](CO)[C@@H](O)[C@H](O)[C@H]2O)[C@@H](CO[C@@H]2O[C@H](CO)[C@@H](O)[C@H](O)[C@H]2O)Cc2ccc(O)c(OC)c2)ccc1O` [natural (S,S)-SDG-1, (S,S)-secoisolariciresinol diglucoside], for which the EC50 in test [1] was found to be 275 ± 13.2 µM. Also, in test [3], the “Antioxidant capacity Against Hydroxyl Radicals (GAE)” value is given as 3.68 ± 0.27 GAE. In test [4], the “Antioxidant capacity Against Peroxyl Radicals (TE)” value amounted to 2.55 ± 0.11 TE and the “Inhibition of fluorescein oxidation by peroxyl radicals relative to trolox” value is “two-fold increase in potency over the trolox standard”. The EC50 in test [2] came to 83.9 ± 2.8 µM.

Regarding `COc1cc(C[C@H](CO[C@@H]2O[C@H](CO)[C@@H](O)[C@H](O)[C@H]2O)[C@@H](CO[C@@H]2O[C@H](CO)[C@@H](O)[C@H](O)[C@H]2O)Cc2ccc(O)c(OC)c2)ccc1O` [synthetic (S,S)-SDG-1, (S,S)-secoisolariciresinol diglucoside], in test [1], the EC50 was 292 ± 27.7 µM. Further, in test [3], the “Antioxidant capacity Against Hydroxyl Radicals (GAE)” value amounted to 2.09 ± 0.16 GAE and the “Inhibition of fluorescein oxidation by hydroxyl radicals relative to gallic acid” value is “two-fold higher than gallic acid”. Moreover, in test [4], the “Antioxidant capacity Against Peroxyl Radicals (TE)” value came to 3.03 ± 0.04 TE and the “Inhibition of fluorescein oxidation by peroxyl radicals relative to trolox” value was “two-fold increase in potency over the trolox standard”. Moreover, the “DPPH inhibition at higher concentrations” value in test [2] (250-500 μM) is “significantly lower than those exerted by (R,R)-SDG-2 and natural (S,S)-SDG-1”. Further, the EC50 in test [2] stood at 158 ± 21.3 µM.

`COc1cc(C[C@@H](CO[C@@H]2O[C@H](CO)[C@@H](O)[C@H](O)[C@H]2O)[C@H](CO[C@@H]2O[C@H](CO)[C@@H](O)[C@H](O)[C@H]2O)Cc2ccc(O)c(OC)c2)ccc1O` [synthetic (R,R)-SDG-2, (R,R)-secoisolariciresinol diglucoside]: in test [1], the concentration giving a half-maximal response (EC50) worked out at 332 ± 21.2 µM. Moreover, in test [3], the “Antioxidant capacity Against Hydroxyl Radicals (GAE)” value amounted to 1.96 ± 0.27 GAE and the “Inhibition of fluorescein oxidation by hydroxyl radicals relative to gallic acid” value was “two-fold higher than gallic acid”. In test [4], the “Antioxidant capacity Against Peroxyl Radicals (TE)” value amounted to 2.20 ± 0.10 TE and the “Inhibition of fluorescein oxidation by peroxyl radicals relative to trolox” value is “two-fold increase in potency over the trolox standard”. Moreover, in test [2], the EC50 is 124 ± 8.67 µM.

As to `O=C1O[C@H]([C@@H](O)CO)C(O)=C1O` [ascorbic acid, reference compound], the EC50 in test [1] was 1130 ± 88.8 µM; in test [2], 440 ± 11.8 µM.

A word on the EC50: it is the midpoint of the concentration-response curve.
